One experiment concerns MM52 cells. Description: Colony assay / Cell Titer Glo in short-term melanoma culture MM52. It is filed as cell-based, human. On the procedure: D) Colony assay performed over 7 days.
E) and Cell Titer Glo assay performed after 6 days after incubation of the short culture melanoma line MM052 with MEK inhibitor trametinib (TRA; […]; 1 uM), FAK inhibitor PF-562271 (1 uM) and RXRG antagonist HX531 (2 uM)
Cells were grown to near confluency on 12well plates and treated with the indicated drug combinations for the indicated time period. Cells were washed once with PBS, stained with crystal violet (1% crystal violet w/v, 35% methanol v/v) for 15 min, washed with PBS and destained in tap water.
1.15. Cell Titer Glo 2500 cells were plated onto a 96 well plate and treated with the indicated drug combinations for the indicated time period. Cell Titer Glo assay was performed according to the manufacturer's instruction (Promega) and luminescence was measured on a VictorX3 (Perkin Elmer).

The test system of experiment [1] is GFRA2-positive MEL006 cells. Description: FACS of GFRA2-positive cells in MEL006 cultures.
Description: Cells were resuspended in FACS sorting buffer (culture medium supplied with 1% EDTA 100 mM).
In another experiment the test system is RAR receptors. As to conditions: cited from earlier work.

For `CN1c2ccc([N+](=O)[O-])cc2N=C(c2ccc(C(=O)O)cc2)c2cc3c(cc21)C(C)(C)CCC3(C)C` [HX531], the “sensitivity of MM52 cells to trametinib” value with MM52 cells (HX531 plus trametinib) is “sensitized these cells to trametinib”. Further, the “drug-dependent induction of GFRA2-positive cells” value in experiment [1] (with IC50 concentrations of BRAF and MEK-inhibitors) is given as “completely inhibited emergence”.

In the case of `CN(c1ncccc1CNc1nc(Nc2ccc3c(c2)CC(=O)N3)ncc1C(F)(F)F)S(C)(=O)=O` [PF-562271], in experiment [1] (added to DT), the “drug-dependent emergence of the GFRA2-high cell population” value was “diminished the drug-dependent emergence of the GFRA2-high cell population in a dose-dependent manner”.

Take `CC1(C)CCC(C)(C)c2cc(C3(c4ccc(C(=O)O)cc4)OCCO3)ccc21` [SR 11237]: the RAR activity entry with RAR receptors was “devoid of any RAR activity”.

On to `C=C(c1ccc(C(=O)O)cc1)c1cc2c(cc1C)C(C)(C)CCC2(C)C` [bexarotene], for which the long-term growth inhibition result in the experiment with MM52 cells (alone) is given as “did not induce measurable long-term growth inhibition”. Besides, the “sensitivity to a combination of trametinib/FAK-inhibitors” value with MM52 cells (bexarotene added) was “increased the sensitivity”. Besides, the “sensitivity of MM52 cells to trametinib” value with MM52 cells (bexarotene at concentrations as low as 10 nM) is “significantly decreased the sensitivity”. In addition, the “cells with cell death” value in the experiment with MM52 cells (bexarotene with trametinib/FAK-inhibitors, after 3 days of treatment) is on record as about 100%.

These data come from US20210008070A1, “TARGETING MINIMAL RESIDUAL DISEASE IN CANCER WITH CD36 ANTAGONISTS” (VIB VZW, priority 2018, published 2021).
